The values that follow come from publication PMC2794843, “Differential regulation of muscarinic M1 receptors by orthosteric and allosteric ligands” (BMC Pharmacology, 2009).

Assay [1] concerns the target T1, human muscarinic M1 receptor (hM1) (Homo sapiens, UniProt P11229).
T1 construct: gene CHRM1; full-length hM1
T1 sequence (P11229 1-460): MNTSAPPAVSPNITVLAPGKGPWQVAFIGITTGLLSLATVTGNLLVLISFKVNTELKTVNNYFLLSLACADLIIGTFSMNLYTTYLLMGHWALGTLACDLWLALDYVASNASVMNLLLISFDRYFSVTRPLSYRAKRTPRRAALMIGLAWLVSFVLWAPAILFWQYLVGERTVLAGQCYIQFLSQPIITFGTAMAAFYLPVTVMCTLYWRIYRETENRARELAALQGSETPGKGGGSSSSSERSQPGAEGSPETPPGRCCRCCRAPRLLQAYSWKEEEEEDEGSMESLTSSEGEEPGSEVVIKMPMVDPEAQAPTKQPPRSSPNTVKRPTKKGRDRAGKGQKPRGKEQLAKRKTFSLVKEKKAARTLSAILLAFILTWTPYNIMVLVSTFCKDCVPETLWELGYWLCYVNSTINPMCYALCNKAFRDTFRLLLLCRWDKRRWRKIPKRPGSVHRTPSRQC
Briefly: R-SAT, transiently transfected NIH-3T3 cells. Format: cell-based. The conditions noted are these: for pEC50: agonist. From the text:
R-SAT, transiently transfected NIH-3T3 cells on human muscarinic M1 receptor (hM1)

In assay [2] the target is T1, human muscarinic M1 receptor (hM1). Briefly: PI hydrolysis, CHO-M1 cells. Format: cell-based. To be noted: partial agonist; 60 min, 37°C, 10 mM LiCl; allosteric component. From the text: PI hydrolysis, CHO-M1 cells on human muscarinic M1 receptor (hM1)

For the compound `CCCCC1CCN(CCCN2C(=O)COc3cc(Cl)ccc32)CC1` [AC-260515, 4-[3-(4-butyl-piperidin-1-yl)-propyl]-7-chloro-2H-benzo[b][1, 4]oxazin-3-one], the EC50 in assay [1] is 251 nM. As for `CCCCC1CCN(CCCN2C(=O)COc3cc(F)ccc32)CC1` [AC-260977, (R)-4-[3-(4-butylpiperidin-1-yl)propyl]-7-fluoro-2H-benzo[b][1, 4]oxazin-3-one], in assay [1], the pEC50 was 7.7 ± 0.1.

With `O=C1COc2cc(F)ccc2N1CCCN1CCC(OCC2CC2)CC1` [AC-262469, 4-[3-(4-cyclopropylmethyloxypiperidin-1-yl)propyl]-7-fluoro-2H-benzo[b][1, 4]oxazin-3-one], the pEC50 in assay [1] stood at 7.2 ± 0.

Take `Clc1ccc2c(c1)N=C(N1CCNCC1)c1ccccc1N2` [NDMC]: the “PI Hydrolysis / pEC50” value in assay [2] was 7.1 ± 0.4.

The EC50 is the concentration that produces a half-maximal response. As usually defined, the pEC50 is −log10 of the EC50, conventionally taken in molar units.
